Measurements from US6891069B1, “Synthesis of 4-substituted phthalaldehyde” (Ethicon, Inc., priority 2004, dated 2005).
Counter-ions that a name gives are not always drawn. Like-named read-outs stand apart in the source and are kept apart here.

How the values were obtained:
[1] = test system: Mycobacterium terrae bacteria; test: bacterial suspension test; format: cell-based; details: for Germicidal Efficacy: summary Table 14
Method: In Examples 1 to 3, which follow, several germicidal solutions containing either the 4-fluoro-, 4-chloro-, or 4-bromo-phthalaldehyde compound were tested to determine their effectiveness in killing at least 1×10^6/mL of Mycobacterium terrae bacteria using a bacterial suspension test. The bacterial suspension test that was employed is described in Section VII.
The solutions were prepared by adding the appropriate amounts of the germicidal compounds to an aqueous solution. Unless otherwise mentioned all concentrations reported herein are expressed in (w/v)%. The pH of the solution was not adjusted. The tests were conducted at a temperature of about 20° C. (room temperature). The results are presented in terms of log reductions/mL. It is understood that these examples, as well as the other examples herein, are to be construed as merely illustrative, and not limiting.
In this test method, 9 mL of the germicide to be tested is placed in a tube, put into a water bath and allowed to come to the desired temperature. One mL of the test organism, including at least 7 logs/mL of Mycobacterium terrae bacteria, is added to the 9 mL of the germicide to be tested. […] It will be appreciated by those skilled in the art that other concentrations may be utilized by proper dilution and accounting.
At appropriate time intervals, 1 mL aliquots of the germicide-cell suspension were removed and added directly into 9 mL of a 1% glycine solution (neutralizer) and mixed thoroughly to neutralize the germicide in the transferred suspension. The glycine solution was prepared from solid glycine, which is available from VWR Scientific Products, among others. The above-identified 10 mL neutralized solution was then poured through a membrane filter having an average pore size of 0.45 micrometers. The filter was then rinsed twice with at least 150 mL of the 1% glycine solution per rinse. The filter was then placed on an agar plate and incubated for twenty-one days at 37° C. In the above procedure, if dilution was needed, then the 1 mL germicidal-cell suspension was diluted in 99 mL of a phosphate buffer before addition to the 9 mL of the 1% glycine solution. The phosphate buffer was DiLu-LoK™ Butterfields Phosphate Buffer, available from Hardy Diagnostics, of Santa Maria, Calif.
The surviving colonies are then counted. The data is plotted as S/So vs. time. So is the initial count of the bacteria in the above 10 mL solution which is at least 10^6 bacteria/mL, and S is the surviving bacteria from the above filter on the agar plate. The results of the experiments were presented in terms of log reductions. Log reduction is the difference between log(So) and log(S). As one example, if log(So)=6.2, and if there were 100 survivors, then the log(S)=2, and the log reduction was reported as 4.2.

solubility in water = details: for Concentration, Saturated: saturated aqueous germicidal solution, pH not adjusted

In the case of 4-pyridinyl-propanedial, the “Log Reductions/mL” value ([1]; Saturated (˜2.3% w/v), 5 min, 20° C.) is reported as 4.0 log reductions/mL and the “Concentration, Saturated” value (solubility in water) is reported as “(˜2.3%) w/v %”.
In the case of O=CC(c1ccccc1)C(O)S(=O)(=O)[O-].[Na+] (stereo not shown) [1-hydroxy-3-oxo-2-phenyl-propane-1-sulfonic acid, sodium salt], the “Log Reductions/mL” value ([1]; 0.6%, 20° C., 60 min, sodium salt) is reported as “Total Kill”, the “Log Reductions/mL” value ([1]; 2.5%, 20° C., 10 min, sodium salt) is reported as “Total Kill” and the “Log Reductions/mL” value ([1]; 2.5%, 20° C., 30 min) is reported as “Total Kill”. For the same compound, the “Log Reductions/mL” value ([1]; 9.4%, 20° C., 30 min) was “Total Kill”, the log reduction at 0.6 % ([1]; Mycolicibacter terrae, 0.25 h, 0.6%, 20° C., 15 min, read-out: Log Reductions/mL) was 2.4 and the log reduction at 0.6 % ([1]; Mycolicibacter terrae, 0.5 h, 0.6%, 20° C., 30 min, read-out: Log Reductions/mL) was 3.5.
With O=CC(c1nc2ccccc2o1)C(O)S(=O)(=O)O (stereo not shown) [2-benzooxazol-2-yl-1-hydroxy-3-oxo-propane-1-sulfonic acid, sodium salt] the log reduction at 11.1 % ([1]; Mycolicibacter terrae, 1 h, 11.1%, 20° C., 60 min, read-out: Log Reductions/mL) was 5.
For O=CC(C=O)c1cccc(C(=O)O)c1[N+](=O)[O-] [3-(1-formyl-2-oxoethyl)-2-nitro-benzoic acid], the “Concentration, Saturated” value (solubility in water) was “(˜2.1%) w/v %”.
For O=Cc1ccc(Br)cc1C=O [4-bromo-phthalaldehyde], the “Log Reductions/mL” value ([1]; 0.1%, 20° C., 30 minutes) was “Total Kill” and the log reduction at 0.1 % ([1]; Mycolicibacter terrae, 10 min, 0.1%, 20° C., 10 minutes, read-out: Log Reductions/mL) was 5.6.
For O=Cc1ccc(Cl)cc1C=O [4-chloro-phthalaldehyde], the “Log Reductions/mL” value ([1]; 2.7 w/v % in 20% isopropanol, 20° C., 5 min) was “Total Kill” and the log reduction at 0.2 % ([1]; Mycolicibacter terrae, 5 min, 0.2 w/v %, 20° C., 5 min, read-out: Log Reductions/mL) was 5.9.
In the case of O=Cc1ccc(F)cc1C=O [4-fluoro-phthalaldehyde], the “Log Reductions/mL” value ([1]; 0.25%, 20° C., 60 minutes) is reported as “Total Kill” and the log reduction at 0.25 % ([1]; Mycolicibacter terrae, 0.5 h, 0.25%, 20° C., 30 minutes, read-out: Log Reductions/mL) is reported as 5.6.
With O=Cc1ccccc1C(O)S(=O)(=O)[O-].[Na+] (stereo not shown) [(2-formyl-phenyl)-hydroxy-methane sulfonic acid, sodium salt] the “Log Reductions/mL” value ([1]; 9.1%, 20° C., 5 min, listed as (2-formyl-phenyl)-hydroxy-methane sulfonate, sodium salt) was “confluent”, the “Log Reductions/mL” value ([1]; 9.1%, 20° C., 5 min, listed as H-SULF, sodium salt) was “Confluent” and the log reduction at 8.9 % ([1]; Mycolicibacter terrae, 0.5 h, 20° C., 30 min, read-out: Log Reductions/mL) was 2. The log reduction at 8.9 % ([1]; Mycolicibacter terrae, 1 h, 20° C., 60 min, read-out: Log Reductions/mL) was 3.5 and the log reduction at 8.9 % ([1]; Mycolicibacter terrae, 2 h, 20° C., 120 min, read-out: Log Reductions/mL) was 5.7.
In the case of O=Cc1cccc(C=O)c1 [IPA, isophthalaldehyde, reference compound], the “Log Reductions/mL” value ([1]; 0.3%, dissolved in 20% isopropanol, 20° C., 5 min (Table 11)) is reported as “Confluent”, the “Log Reductions/mL” value ([1]; 0.3%, dissolved in 20% isopropanol, 20° C., 5 min (Table 15)) is reported as “Confluent” and the “Germicidal Efficacy” value [1] is reported as “Poor”.
For O=Cc1ccccc1C=O [OPA, phthalaldehyde], the log reduction at 0.08 % ([1]; Mycolicibacter terrae, 0.5 h, 0.08%, 20° C., 30 min, read-out: Log Reductions/mL) was 3.1, the log reduction at 0.1 % ([1]; Mycolicibacter terrae, 0.5 h, 0.10%, 20° C., 30 min, read-out: Log Reductions/mL) was 3.4 and the log reduction at 0.14 % ([1]; Mycolicibacter terrae, 0.5 h, 0.14%, 20° C., 30 min, read-out: Log Reductions/mL) was 5.8. For the same compound, the “Germicidal Efficacy” value [1] was “Good” and the solubility in water (solubility in water) was “about 5 % by weight”.
In the case of O=Cc1ccc(C=O)cc1 [TPA, terephthaladehyde, reference compound], the “Log Reductions/mL” value ([1]; 0.2%, dissolved in 20% isopropanol, 20° C., 5 min) is reported as “Confluent” and the “Germicidal Efficacy” value [1] is reported as “Poor”.
With O=CC(C=O)c1ccccc1 [phenyl-propanedial] the “Log Reductions/mL” value ([1]; 0.4%, 20° C., 60 min) was “Total Kill”, the “Log Reductions/mL” value ([1]; 0.7%, 20° C., 15 min) was “Total Kill” and the kill ([1]; 1% solution, 5 minutes, 20° C.) was “more than 4 logs”. For the same compound, the log reduction at 0.3 % ([1]; Mycolicibacter terrae, 1 h, 0.3%, 20° C., 60 min, read-out: Log Reductions/mL) was 3.7, the log reduction at 0.33 % ([1]; Mycolicibacter terrae, 1 h, 0.33%, 20° C., 60 min, read-out: Log Reductions/mL) was 3.7 and the solubility in water (solubility in water) was “about 1%”.
